# Measurements reported in ChEMBL document CHEMBL1201862, “PubChem BioAssay data set” (2004).
# Activity calls are given as the source filed them.
# How the values were obtained:
# HEK293 [1] = test: inhibition of NOD1-driven NF-kB reporter – cell-based, luminescence, uHTS, primary screen (AID 1578); type: functional; conditions: Homo sapiens
# HEK293 [2] = test: cells; type: functional, cell-based; conditions: Homo sapiens
# HEK293 [3] = test: cells; type: functional, cell-based; conditions: Homo sapiens; remark: listed apart in the source
# [4] = molecular target: Nucleotide-binding oligomerization domain-containing protein 2 (Homo sapiens, UniProt Q9HC29); test: inhibition of NOD2-driven NF-kB reporter – cell-based, luminescence, uHTS, HEK293 (AID 1566); type: functional
# HEK293 [5] = test: NOD2 signaling inhibitors in MDP-stimulated cells, cell-based, uHTS, luminescence (AID 2001); type: functional; conditions: Homo sapiens
# HEK293 [6] = test: cells; type: functional, cell-based; conditions: Homo sapiens; remark: listed apart in the source
# [7] = molecular target: Eukaryotic translation initiation factor 4H (Homo sapiens, UniProt Q15056); test: eIF4H binding inhibition – biochemical, uHTS, fluorescence polarization, translation initiation inhibitor project, primary screen (AID 2012)
# [8] = molecular target: Polyadenylate-binding protein 1 (Homo sapiens, UniProt P11940); test: blockers of PABP interaction with poly(A) – biochemical, fluorescence polarization, […] (AID 2014)
# [9] = molecular target: T1, Carboxy-terminal domain RNA polymerase II polypeptide A small phosphatase 1 (Homo sapiens, UniProt Q9GZU7); test: CTDSP1 inhibitors, concentration-response, biochemical, absorbance readout, ultra-high-throughput screen actives (AID 540297); type: functional
# T1 sequence (Q9GZU7 whole entry): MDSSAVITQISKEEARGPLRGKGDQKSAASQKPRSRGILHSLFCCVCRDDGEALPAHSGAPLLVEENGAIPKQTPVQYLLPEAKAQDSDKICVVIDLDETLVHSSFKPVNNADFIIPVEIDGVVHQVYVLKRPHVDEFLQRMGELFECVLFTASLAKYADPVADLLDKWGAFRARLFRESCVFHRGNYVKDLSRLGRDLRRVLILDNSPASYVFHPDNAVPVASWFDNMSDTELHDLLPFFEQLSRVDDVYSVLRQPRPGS
# [10] = Trypanosoma cruzi growth suppression in host cells – NIH3T3 host cells, beta-gal luminescence, confirmation (AID 2044); type: functional, cell-based;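 further: intracellular parasites grown in NIH/3T3 mouse fibroblasts as host cells; luminescent beta-galactosidase reporter signal from transgenic T. cruzi replicating inside host cells; inhibitors lower the luminescence signal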
# [11] = NIH3T3 cell viability loss – ATP luminescence, mouse fibroblasts, counter-screen, dose response (AID 2010); type: functional, cell-based;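 further: cells exposed to compound for about 90 hours before reading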
# [12] = molecular target: T2, Short transient receptor potential channel 4 (Mus musculus, UniProt Q9QUQ5); test: potentiation of DAMGO-evoked TRPC4 calcium signal – cell-based, HEK293 TRPC4/mu-opioid, Fluo-4 calcium, EC20 DAMGO, dose response (AID 434941); type: functional
# T2 sequence (Q9QUQ5 whole entry): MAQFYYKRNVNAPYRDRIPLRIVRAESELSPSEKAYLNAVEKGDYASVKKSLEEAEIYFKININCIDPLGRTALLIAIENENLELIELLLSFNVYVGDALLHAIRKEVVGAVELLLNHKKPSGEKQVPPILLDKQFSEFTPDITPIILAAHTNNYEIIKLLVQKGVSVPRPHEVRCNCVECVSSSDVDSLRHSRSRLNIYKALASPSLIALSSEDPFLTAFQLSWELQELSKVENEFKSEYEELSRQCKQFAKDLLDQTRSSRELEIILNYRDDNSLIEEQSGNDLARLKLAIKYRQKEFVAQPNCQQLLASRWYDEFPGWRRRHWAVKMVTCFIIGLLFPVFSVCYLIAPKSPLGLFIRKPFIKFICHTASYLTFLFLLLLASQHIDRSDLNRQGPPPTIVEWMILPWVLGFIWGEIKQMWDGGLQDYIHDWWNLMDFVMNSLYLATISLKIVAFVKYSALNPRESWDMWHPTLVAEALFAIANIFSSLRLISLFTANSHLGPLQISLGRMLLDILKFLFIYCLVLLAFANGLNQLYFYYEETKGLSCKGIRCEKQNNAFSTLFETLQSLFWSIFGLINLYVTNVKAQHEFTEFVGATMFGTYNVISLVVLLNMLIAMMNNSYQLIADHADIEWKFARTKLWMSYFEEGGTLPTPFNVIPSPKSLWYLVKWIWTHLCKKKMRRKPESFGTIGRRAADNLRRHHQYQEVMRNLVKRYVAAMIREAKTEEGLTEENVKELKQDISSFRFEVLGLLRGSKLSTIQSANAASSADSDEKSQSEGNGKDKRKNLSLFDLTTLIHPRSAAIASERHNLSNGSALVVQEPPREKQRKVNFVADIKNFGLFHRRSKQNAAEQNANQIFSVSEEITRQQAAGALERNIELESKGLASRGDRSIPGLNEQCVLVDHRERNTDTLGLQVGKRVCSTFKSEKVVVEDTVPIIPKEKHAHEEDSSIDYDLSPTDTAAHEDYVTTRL
# [13] = molecular target: T2, Short transient receptor potential channel 4; test: calcium entry via TRPC4 opening agents – cell-based, HEK293 TRPC4/mu-opioid, Fluo-4 calcium, dose response (AID 434937); type: functional
# [14] = molecular target: T3, Eukaryotic translation initiation factor 2-alpha kinase 3 (Homo sapiens, UniProt Q9NZJ5); test: Dose response cell-based high-throughput screening assay to measure PERK inhibition. [Related pubchem assays: 1416 ]; type: functional
# T3 sequence (Q9NZJ5 whole entry): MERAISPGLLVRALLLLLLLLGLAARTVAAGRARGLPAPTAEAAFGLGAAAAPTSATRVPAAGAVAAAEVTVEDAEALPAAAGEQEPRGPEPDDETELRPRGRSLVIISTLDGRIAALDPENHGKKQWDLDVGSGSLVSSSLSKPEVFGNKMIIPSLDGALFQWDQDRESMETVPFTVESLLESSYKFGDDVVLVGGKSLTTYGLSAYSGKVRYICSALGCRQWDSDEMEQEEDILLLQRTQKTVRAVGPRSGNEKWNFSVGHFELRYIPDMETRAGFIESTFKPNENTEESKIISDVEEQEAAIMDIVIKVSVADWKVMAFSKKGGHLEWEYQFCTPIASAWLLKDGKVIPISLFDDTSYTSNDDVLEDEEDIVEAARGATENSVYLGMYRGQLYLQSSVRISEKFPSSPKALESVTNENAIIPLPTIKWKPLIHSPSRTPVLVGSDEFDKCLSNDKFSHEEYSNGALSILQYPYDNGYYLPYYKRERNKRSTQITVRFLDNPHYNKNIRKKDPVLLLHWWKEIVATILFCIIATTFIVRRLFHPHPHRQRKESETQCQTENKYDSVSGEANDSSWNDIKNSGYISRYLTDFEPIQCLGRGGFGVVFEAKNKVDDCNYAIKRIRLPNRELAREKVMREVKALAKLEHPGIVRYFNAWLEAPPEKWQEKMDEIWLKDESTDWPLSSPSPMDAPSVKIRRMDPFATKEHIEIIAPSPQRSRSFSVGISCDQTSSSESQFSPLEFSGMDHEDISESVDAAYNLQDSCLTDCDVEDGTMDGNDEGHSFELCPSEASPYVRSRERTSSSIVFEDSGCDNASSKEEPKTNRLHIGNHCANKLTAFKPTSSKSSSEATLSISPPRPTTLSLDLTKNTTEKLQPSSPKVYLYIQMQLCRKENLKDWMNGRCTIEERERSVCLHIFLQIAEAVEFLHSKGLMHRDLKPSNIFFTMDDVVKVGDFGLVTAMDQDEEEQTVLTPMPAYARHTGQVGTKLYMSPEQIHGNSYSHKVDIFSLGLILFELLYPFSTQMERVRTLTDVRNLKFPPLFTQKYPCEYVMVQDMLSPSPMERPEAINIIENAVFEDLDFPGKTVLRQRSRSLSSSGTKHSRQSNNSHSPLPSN
# [15] = molecular target: T3, Eukaryotic translation initiation factor 2-alpha kinase 3; test: Counterscreen assay for PERK inhibitors: Dose response cell-based high throughput screening assay to measure inhibition of PERK at 6 hours. [Related pubchem assays: 1522, 1416 ]; type: functional
# Beta-galactosidase = Beta-galactosidase (Escherichia coli, UniProt Q8VNN2); test: detection-enzyme interference by beta-gal modulators – biochemical, E. coli enzyme, set 3, artefact control for CCR6 antagonist project, dose response (AID 504712); type: functional
# [16] = A cytotoxicity screen of small molecule inhibitors of the PhoP region in Salmonella typhi identified in the primary screen. [Related pubchem assays: 1850, 1864, 1985 ]; type: functional
# [17] = tested on: Streptococcus sp. 'group A'; test: Streptococcus pyogenes SK(-)GAS viability under kanamycin – luminescence, BacTiterGlo, confirmation, counter-screen for streptokinase expression inhibitor project, dose response (AID 1900); type: functional, organism-based
# Streptococcus = test: GAS UMAA2166 growth inhibition – luminescence, BacTiterGlo, counter-screen for streptokinase expression inhibitor project, dose response (AID 1915); type: functional, organism-based;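 further: potency for reduction of bacterial viability or growth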
# Trypsin = Trypsin (Sus scrofa, UniProt P00761); test: trypsin protease activity blockade – biochemical, quenched peptide fluorescence, cherry-pick, selectivity assay for Rce1 protease inhibitor project, dose response (AID 488789)
# [18] = molecular target: Eukaryotic translation initiation factor 4E (Mus musculus, UniProt P63073); test: blockers of eIF4G binding by eIF4E – biochemical, TR-FRET, dose response (AID 855); type: functional;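 further: potency for disrupting eIF4E binding to eIF4GI seen as loss of FRET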
# Hexokinase = Hexokinase (Trypanosoma brucei, UniProt Q38C41); test: Confirmation assay for inhibitors of Trypanosoma brucei hexokinase 1-Analogue-first series. [Related pubchem assays (depositor defined):AID1430, AID1632, AID2516, AID2560, AID2579, AID2600, AID449725, AID492951]; type: functional
# [19] = M. tuberculosis growth inhibition, HTS (AID 449762); type: functional
# [20] = molecular target: DNA dC->dU-editing enzyme APOBEC-3A (Homo sapiens, UniProt P31941); test: A3A deaminase inhibition for selectivity – biochemical, dose response (AID 504722); type: functional
# [21] = molecular target: DNA dC->dU-editing enzyme APOBEC-3G (Homo sapiens, UniProt Q9HC16); test: Dose Response confirmation of small molecule APOBEC3G DNA Deaminase Inhibitors via a fluorescence-based single-stranded DNA deaminase assay. [Related pubchem assays (depositor defined):AID493012, AID493028]; type: functional
# [22] = molecular target: T4, Rac GTPase-activating protein 1 (Homo sapiens, UniProt Q9H0H5); test: blockers of MgcRacGAP-driven Rac1 GTP hydrolysis – biochemical, ADP Hunter fluorescence, primary and confirmatory, confirmation (AID 624330); type: functional
# T4 sequence (Q9H0H5 whole entry): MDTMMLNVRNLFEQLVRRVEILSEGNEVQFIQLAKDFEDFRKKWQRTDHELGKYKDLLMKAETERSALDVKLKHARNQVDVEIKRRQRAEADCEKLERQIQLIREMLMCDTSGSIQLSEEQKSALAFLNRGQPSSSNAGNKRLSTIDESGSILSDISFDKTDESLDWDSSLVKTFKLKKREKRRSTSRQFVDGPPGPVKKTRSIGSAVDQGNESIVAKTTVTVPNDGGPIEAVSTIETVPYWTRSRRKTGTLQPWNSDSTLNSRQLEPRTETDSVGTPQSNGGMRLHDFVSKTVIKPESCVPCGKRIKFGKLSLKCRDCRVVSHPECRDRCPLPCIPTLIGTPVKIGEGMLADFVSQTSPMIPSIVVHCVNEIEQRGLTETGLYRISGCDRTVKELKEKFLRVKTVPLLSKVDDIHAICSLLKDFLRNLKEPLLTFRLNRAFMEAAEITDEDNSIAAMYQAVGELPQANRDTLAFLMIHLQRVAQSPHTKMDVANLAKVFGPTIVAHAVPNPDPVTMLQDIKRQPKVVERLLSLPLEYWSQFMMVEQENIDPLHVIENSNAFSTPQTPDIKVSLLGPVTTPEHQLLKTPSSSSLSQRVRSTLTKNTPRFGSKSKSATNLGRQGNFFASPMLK
# Chain of Beta-galactosidase (Q8VNN2 whole entry): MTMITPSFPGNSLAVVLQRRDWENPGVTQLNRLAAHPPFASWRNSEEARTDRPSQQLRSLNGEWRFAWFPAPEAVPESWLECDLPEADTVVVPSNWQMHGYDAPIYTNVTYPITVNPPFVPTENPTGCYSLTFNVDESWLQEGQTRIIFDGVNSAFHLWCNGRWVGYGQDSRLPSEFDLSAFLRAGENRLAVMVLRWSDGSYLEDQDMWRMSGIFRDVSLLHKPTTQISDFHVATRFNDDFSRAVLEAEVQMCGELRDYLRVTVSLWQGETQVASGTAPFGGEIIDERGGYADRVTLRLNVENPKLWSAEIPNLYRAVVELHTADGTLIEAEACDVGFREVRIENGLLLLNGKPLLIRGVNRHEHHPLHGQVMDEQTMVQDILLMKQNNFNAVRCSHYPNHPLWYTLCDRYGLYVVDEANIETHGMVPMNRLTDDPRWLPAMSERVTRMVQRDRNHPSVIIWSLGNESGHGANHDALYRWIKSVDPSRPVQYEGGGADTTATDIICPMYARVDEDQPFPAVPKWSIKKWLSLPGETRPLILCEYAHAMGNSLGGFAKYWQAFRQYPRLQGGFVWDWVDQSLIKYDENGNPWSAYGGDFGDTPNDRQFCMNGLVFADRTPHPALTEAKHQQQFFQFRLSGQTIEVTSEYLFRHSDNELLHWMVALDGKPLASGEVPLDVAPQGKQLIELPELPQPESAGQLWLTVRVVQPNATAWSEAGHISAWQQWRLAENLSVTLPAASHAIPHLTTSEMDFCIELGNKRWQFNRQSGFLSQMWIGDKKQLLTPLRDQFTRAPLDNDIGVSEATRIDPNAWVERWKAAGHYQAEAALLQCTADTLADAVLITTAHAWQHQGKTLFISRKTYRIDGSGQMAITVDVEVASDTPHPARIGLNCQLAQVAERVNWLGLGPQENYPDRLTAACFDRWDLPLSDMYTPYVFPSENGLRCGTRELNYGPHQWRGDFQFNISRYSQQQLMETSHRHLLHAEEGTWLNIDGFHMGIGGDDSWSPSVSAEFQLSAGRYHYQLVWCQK
# Chain of DNA dC->dU-editing enzyme APOBEC-3A (P31941 whole entry): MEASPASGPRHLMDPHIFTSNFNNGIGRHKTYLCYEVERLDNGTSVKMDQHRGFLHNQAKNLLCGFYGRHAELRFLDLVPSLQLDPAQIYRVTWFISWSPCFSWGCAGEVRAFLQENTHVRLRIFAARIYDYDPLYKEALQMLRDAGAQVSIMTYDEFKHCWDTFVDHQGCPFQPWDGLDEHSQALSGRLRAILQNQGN
# Chain of Eukaryotic translation initiation factor 4E (P63073 whole entry): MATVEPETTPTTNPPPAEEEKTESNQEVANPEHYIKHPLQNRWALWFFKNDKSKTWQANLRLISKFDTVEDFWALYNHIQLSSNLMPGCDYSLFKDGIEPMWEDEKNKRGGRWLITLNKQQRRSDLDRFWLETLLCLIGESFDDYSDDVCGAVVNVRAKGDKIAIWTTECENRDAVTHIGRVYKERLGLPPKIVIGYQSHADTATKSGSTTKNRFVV
# Chain of DNA dC->dU-editing enzyme APOBEC-3G (Q9HC16 whole entry): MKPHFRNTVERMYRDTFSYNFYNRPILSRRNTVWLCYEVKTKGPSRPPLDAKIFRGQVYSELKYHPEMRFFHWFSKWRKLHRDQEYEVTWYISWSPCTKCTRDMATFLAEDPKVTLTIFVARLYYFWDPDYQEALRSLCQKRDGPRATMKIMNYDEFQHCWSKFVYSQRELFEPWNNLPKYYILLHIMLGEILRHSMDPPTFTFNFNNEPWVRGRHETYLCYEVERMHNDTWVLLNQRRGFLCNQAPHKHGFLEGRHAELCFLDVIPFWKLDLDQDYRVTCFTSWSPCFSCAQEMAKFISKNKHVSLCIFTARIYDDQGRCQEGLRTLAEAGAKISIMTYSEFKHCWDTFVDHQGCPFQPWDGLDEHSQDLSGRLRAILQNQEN
# Chain of Nucleotide-binding oligomerization domain-containing protein 2 (Q9HC29 whole entry, the tested form may be a part): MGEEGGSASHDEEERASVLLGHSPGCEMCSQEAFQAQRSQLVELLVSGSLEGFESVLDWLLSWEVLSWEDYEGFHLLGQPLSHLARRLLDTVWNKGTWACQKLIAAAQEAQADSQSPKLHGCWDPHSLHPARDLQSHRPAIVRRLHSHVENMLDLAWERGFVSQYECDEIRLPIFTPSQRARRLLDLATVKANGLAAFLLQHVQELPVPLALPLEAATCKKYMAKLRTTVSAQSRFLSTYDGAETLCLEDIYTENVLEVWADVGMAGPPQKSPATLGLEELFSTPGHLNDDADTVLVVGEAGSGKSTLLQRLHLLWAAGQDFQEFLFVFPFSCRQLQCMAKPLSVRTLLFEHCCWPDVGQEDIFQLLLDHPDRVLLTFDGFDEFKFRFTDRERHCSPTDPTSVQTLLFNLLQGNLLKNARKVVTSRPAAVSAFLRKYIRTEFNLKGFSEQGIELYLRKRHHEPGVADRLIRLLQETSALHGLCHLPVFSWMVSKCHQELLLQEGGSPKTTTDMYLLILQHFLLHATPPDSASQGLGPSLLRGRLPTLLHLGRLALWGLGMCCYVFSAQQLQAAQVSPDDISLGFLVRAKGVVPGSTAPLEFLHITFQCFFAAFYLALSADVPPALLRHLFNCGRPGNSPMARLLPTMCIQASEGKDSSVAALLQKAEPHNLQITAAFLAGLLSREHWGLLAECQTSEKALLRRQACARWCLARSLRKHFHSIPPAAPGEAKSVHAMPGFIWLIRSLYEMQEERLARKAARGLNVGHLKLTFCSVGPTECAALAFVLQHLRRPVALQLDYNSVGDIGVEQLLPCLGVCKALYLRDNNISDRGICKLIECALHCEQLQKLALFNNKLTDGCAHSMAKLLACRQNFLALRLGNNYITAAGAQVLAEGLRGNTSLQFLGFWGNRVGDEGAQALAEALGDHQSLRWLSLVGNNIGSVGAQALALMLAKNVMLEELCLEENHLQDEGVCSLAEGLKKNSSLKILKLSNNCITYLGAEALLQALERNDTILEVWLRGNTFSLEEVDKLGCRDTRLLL
# Chain of Polyadenylate-binding protein 1 (P11940 whole entry, the tested form may be a part): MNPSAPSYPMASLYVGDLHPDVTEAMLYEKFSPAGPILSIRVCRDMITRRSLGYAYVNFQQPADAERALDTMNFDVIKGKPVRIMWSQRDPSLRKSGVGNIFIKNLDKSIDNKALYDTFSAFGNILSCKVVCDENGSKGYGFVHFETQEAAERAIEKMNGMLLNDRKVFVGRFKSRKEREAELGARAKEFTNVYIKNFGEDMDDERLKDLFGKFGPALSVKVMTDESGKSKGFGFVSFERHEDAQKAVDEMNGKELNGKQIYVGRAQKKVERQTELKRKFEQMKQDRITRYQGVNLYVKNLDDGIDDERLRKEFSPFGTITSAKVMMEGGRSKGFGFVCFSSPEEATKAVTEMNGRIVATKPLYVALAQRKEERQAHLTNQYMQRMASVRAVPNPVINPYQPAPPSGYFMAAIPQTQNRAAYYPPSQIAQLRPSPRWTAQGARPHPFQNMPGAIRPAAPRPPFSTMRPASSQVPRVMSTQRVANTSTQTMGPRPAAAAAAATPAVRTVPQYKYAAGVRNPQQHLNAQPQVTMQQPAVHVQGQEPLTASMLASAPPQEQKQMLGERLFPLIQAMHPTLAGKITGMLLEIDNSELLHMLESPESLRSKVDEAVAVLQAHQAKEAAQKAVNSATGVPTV
# Chain of Hexokinase (Q38C41 whole entry): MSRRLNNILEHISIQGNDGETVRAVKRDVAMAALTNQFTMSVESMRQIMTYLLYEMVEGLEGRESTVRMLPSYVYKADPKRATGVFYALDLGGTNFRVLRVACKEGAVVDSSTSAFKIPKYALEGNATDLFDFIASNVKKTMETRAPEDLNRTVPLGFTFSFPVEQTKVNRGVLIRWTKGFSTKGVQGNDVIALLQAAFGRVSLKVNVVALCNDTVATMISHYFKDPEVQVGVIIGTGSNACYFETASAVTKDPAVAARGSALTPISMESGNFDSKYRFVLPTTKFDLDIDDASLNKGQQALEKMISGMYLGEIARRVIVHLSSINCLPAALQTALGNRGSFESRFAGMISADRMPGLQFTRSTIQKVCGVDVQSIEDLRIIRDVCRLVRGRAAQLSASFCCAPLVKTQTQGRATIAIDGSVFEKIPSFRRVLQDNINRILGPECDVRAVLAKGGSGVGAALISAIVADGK
# Chain of Trypsin (P00761 whole entry): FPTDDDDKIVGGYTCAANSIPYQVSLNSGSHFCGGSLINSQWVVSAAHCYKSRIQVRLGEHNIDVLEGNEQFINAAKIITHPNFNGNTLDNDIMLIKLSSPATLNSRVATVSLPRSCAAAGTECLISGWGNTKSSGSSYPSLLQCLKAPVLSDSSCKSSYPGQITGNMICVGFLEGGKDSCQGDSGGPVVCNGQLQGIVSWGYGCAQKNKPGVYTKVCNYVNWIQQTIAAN
structure (smiles),measurement,setting,value
Cc1cc(OCC(=O)Nc2ccncc2)cc(C)c1Cl,EC50,HEK293 [1],2.46 µM (active)
same,IC50,HEK293 [2],4.41 µM (active)
same,IC50,HEK293 [3],12.3 µM (active)
same,EC50,[4],8.48 µM (active)
same,IC50,HEK293 [5],6.09 µM (active)
same,IC50,HEK293 [6],> 20 µM (inactive)
O=S(=O)([O-])CCC[n+]1ccc(Oc2ccccc2)cc1,IC50,[7],48.3 µM (active)
same,IC50,[8],4.32 µM (active)
same,IC50,[9],12.9 µM (active)
CC1Cc2ccccc2N1C(=O)CSc1nc2c(c(=O)n(C)c(=O)n2C)n1Cc1ccccc1 (stereo not given),EC50,[10],4.07 µM (active)
same,EC50,[11],> 60 µM (not active)
same,EC50,[12],0.15 µM (active)
same,EC50,[13],2.11 µM (active)
Cc1ccc2c(c1C)NC(C)CC2C (stereo not given),EC50,[14],> 55.7 µM (not active)
same,EC50,[15],> 55.7 µM (not active)
CC(C)Cc1nnc(NC(=O)c2cc([N+](=O)[O-])ccc2N2CCOCC2)s1,IC50,Beta-galactosidase,> 66.6 µM (inactive)
CCN(CC(=O)NC(C)(C)C)C(=O)COc1c(Cl)cc(Cl)c2ccc(C)nc12,EC50,[16],> 50 µM (active)
same,EC50,[17],1.45 µM (active)
same,EC50,Streptococcus,6.5 µM (active)
same,IC50,Beta-galactosidase,> 66.6 µM (inactive)
CCCc1nc2ccccc2c(=O)n1N,EC50,[14],> 55.7 µM (not active)
same,EC50,[15],> 55.7 µM (not active)
COc1nc(-c2ccccc2)ccc1-c1noc(-c2ccccc2F)n1,AC50,Trypsin,> 100 µM (inactive)
CN(C)CCCOc1cccc(Cl)c1,EC50,[12],0.03 µM (active)
same,EC50,[13],0.06 µM (active)
O=C(NC1CCCCCCC1)c1ccc2c(c1)OCO2,IC50,[18],> 64 µM (inactive)
CCOc1ccc(-n2c(C)c(C(C)=O)c3cc(O)ccc32)cc1,EC50,HEK293 [1],> 20 µM (inactive)
same,IC50,HEK293 [2],0.451 µM (active)
same,IC50,HEK293 [3],> 20 µM (inactive)
same,EC50,[4],> 20 µM (inactive)
same,IC50,HEK293 [5],0.875 µM (active)
same,IC50,HEK293 [6],> 20 µM (inactive)
CCOC(=O)Cn1sc2ccccc2c1=O,IC50,Hexokinase,12.5 µM (active)
O=C1c2ccccc2C(=O)N1Cc1nc2ccccc2c(=O)n1-c1ccccn1,IC50,[18],> 64 µM (inactive)
Cc1nn(-c2ccccc2)c(S)c1/C=N/CCC/N=C/c1c(C)nn(-c2ccccc2)c1S,IC50,[19],> 100 µM (active)
same,IC50,[20],> 100 µM (inactive)
same,IC50,[21],5.47 µM (active)
COc1cccc(/C=N/n2c(S)nnc2-c2[nH]nc3c2CCC3)c1O,IC50,[20],> 100 µM (inactive)
same,IC50,[21],2.48 µM (active)
same,IC50,[22],53.9 µM (active)
